Reference: ChEMBL document CHEMBL5291721, “A preclinical secondary pharmacology resource illuminates target-adverse drug reaction associations of marketed drugs” (Nat Commun, 2023)

How the values were obtained:
[1] = molecular target: Sodium-dependent serotonin transporter (Homo sapiens, UniProt P31645)
Androgen receptor = molecular target: T1, Androgen receptor (Homo sapiens, UniProt P10275)
T1 sequence (P10275 whole entry): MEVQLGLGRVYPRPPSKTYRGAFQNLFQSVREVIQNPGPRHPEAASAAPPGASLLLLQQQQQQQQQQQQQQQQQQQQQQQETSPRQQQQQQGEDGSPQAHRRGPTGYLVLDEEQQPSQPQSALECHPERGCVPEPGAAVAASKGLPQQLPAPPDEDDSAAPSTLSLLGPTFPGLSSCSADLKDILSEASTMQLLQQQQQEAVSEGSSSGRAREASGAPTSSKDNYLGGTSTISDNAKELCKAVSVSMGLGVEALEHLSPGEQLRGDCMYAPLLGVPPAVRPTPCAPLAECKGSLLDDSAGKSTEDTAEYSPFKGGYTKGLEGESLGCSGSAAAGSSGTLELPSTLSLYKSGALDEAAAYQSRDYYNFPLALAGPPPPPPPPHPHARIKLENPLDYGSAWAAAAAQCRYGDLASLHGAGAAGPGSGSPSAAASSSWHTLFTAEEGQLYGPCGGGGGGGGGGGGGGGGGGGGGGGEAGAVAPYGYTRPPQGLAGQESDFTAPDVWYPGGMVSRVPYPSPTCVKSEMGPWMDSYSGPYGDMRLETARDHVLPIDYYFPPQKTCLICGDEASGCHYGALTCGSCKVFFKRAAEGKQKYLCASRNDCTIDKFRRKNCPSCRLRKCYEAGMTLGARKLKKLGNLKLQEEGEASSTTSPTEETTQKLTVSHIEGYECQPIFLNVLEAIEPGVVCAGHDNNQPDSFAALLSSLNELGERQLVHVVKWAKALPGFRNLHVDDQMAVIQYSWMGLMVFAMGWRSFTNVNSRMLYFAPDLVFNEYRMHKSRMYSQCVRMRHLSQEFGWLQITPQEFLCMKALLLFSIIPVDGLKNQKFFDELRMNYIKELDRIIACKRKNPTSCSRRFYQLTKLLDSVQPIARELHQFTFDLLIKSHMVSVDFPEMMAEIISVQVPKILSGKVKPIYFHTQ

Vasopressin V1a receptor = Vasopressin V1a receptor (Homo sapiens, UniProt P37288)
Sequence of Vasopressin V1a receptor (P37288 whole entry): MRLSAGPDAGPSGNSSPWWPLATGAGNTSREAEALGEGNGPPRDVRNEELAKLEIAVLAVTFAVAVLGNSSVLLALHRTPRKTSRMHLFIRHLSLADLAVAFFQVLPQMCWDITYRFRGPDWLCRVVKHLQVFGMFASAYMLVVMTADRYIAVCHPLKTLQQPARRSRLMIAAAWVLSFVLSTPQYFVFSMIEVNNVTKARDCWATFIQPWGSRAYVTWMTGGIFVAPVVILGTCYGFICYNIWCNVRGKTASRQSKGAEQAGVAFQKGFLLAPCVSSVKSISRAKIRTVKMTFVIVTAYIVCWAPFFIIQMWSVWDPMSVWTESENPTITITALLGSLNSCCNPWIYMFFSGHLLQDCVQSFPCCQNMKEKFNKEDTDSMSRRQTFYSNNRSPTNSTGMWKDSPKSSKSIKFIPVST

Vasopressin V2 receptor = Vasopressin V2 receptor (Homo sapiens, UniProt P30518)
Sequence of Vasopressin V2 receptor (P30518 whole entry): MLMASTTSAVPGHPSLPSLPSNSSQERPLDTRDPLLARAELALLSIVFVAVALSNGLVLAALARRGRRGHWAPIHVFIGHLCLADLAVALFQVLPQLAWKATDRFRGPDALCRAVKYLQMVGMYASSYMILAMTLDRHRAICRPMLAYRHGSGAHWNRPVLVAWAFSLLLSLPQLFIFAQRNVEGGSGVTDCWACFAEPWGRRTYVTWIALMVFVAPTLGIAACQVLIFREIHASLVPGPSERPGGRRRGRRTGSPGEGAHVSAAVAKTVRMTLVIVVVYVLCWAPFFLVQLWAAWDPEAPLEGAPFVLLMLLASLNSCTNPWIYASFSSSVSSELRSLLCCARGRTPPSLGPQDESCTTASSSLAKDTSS

[2] = molecular target: T2, Muscarinic acetylcholine receptor M2 (Homo sapiens, UniProt P08172); format: functional, cell-based
T2 sequence (P08172 whole entry): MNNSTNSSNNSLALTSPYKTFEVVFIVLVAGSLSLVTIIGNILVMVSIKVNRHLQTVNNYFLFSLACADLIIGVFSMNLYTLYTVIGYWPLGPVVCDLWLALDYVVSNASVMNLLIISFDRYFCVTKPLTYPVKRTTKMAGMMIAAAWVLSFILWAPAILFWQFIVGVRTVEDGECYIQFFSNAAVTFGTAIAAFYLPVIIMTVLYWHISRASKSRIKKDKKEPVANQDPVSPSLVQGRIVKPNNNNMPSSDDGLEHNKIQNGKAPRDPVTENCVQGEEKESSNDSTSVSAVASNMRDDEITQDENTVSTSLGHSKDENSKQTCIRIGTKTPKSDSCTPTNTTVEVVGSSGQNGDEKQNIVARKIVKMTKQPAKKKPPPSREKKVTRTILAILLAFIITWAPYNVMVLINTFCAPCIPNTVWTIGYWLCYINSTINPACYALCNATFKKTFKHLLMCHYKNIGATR

Histamine H2 receptor = Histamine H2 receptor (Homo sapiens, UniProt P25021); format: functional, cell-based
Sequence of Histamine H2 receptor (P25021 whole entry): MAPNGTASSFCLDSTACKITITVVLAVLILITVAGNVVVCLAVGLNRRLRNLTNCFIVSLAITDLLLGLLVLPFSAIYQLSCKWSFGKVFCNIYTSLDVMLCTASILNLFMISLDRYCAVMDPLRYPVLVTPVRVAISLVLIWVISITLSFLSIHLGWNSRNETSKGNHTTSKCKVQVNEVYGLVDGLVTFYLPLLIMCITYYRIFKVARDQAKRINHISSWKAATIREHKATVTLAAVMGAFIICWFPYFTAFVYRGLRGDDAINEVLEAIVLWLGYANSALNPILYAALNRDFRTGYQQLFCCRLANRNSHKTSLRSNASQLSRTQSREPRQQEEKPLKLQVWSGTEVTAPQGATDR

[3] = molecular target: T3, 5-hydroxytryptamine receptor 1A (Homo sapiens, UniProt P08908); format: functional, cell-based
T3 sequence (P08908 whole entry): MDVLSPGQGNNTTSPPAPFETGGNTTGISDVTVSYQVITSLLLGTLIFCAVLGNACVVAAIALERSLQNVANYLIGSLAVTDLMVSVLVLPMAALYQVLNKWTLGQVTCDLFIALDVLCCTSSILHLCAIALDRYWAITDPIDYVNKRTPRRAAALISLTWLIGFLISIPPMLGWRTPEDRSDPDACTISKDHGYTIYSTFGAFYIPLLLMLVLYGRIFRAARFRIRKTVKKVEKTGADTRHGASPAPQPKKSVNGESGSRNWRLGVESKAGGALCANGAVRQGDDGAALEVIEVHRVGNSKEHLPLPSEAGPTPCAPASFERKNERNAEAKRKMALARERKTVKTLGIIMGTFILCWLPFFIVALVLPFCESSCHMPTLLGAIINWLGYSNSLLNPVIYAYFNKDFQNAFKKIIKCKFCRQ

[4] = molecular target: 5-hydroxytryptamine receptor 2B (Homo sapiens, UniProt P41595); format: functional, cell-based
Sequence of 5-hydroxytryptamine receptor 2B (P41595 whole entry): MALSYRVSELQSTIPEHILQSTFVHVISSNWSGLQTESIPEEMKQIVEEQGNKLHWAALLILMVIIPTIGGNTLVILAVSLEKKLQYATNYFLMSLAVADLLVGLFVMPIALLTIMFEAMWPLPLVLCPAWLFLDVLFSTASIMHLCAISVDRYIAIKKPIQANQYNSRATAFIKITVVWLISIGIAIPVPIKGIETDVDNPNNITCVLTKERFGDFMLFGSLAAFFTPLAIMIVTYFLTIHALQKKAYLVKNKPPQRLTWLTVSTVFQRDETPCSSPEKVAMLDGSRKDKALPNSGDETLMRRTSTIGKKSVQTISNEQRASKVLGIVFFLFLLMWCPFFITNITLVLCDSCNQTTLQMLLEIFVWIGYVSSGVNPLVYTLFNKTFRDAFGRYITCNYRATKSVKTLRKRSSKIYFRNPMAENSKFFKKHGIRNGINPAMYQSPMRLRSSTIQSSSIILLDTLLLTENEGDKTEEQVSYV

Progesterone receptor = molecular target: T4, Progesterone receptor (Homo sapiens, UniProt P06401); format: functional
T4 sequence (P06401 whole entry): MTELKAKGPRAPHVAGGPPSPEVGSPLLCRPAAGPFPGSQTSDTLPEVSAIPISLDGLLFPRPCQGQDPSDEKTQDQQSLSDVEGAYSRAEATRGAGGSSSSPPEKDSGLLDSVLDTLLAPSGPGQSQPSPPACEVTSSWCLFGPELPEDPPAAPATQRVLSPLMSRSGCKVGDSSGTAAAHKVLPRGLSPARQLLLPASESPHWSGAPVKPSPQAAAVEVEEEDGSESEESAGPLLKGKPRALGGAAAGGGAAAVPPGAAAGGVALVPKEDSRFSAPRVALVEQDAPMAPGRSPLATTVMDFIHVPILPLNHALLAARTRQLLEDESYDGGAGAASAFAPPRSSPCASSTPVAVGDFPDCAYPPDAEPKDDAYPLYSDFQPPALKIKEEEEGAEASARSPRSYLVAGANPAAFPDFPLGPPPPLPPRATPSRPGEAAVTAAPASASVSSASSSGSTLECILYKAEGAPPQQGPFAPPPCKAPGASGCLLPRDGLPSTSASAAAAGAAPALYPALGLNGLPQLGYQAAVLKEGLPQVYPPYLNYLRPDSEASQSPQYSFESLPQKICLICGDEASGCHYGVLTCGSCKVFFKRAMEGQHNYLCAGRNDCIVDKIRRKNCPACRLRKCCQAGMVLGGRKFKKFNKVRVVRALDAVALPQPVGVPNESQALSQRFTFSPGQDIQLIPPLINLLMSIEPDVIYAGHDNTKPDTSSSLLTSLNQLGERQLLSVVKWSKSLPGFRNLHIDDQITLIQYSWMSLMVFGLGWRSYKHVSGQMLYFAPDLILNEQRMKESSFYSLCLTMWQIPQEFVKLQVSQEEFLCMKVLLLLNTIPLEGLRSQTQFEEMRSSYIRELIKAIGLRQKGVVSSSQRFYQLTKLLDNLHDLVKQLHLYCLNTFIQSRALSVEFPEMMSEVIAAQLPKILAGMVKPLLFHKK
Note: assay procedure not described here.

Sequence of Sodium-dependent serotonin transporter (P31645 whole entry): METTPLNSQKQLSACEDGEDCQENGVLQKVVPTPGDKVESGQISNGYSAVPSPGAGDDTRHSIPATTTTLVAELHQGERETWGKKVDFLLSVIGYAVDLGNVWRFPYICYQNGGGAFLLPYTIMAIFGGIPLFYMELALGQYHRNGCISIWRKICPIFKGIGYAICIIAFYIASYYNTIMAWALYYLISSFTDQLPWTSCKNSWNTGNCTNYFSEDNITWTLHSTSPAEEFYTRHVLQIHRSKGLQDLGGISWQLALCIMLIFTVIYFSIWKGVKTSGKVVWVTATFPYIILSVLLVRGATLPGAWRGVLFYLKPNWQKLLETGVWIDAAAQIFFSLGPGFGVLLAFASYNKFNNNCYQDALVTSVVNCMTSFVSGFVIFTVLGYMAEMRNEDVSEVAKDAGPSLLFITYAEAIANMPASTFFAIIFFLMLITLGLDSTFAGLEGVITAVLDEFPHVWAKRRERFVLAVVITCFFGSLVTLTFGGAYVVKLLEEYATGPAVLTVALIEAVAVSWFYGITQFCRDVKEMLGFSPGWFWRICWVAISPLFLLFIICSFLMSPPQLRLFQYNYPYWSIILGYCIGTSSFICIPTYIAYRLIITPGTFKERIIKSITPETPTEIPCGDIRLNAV

| SMILES | AC50 [1] [µM] | AC50 (Androgen receptor) [µM] | also measured |
| --- | --- | --- | --- |
| CC(=O)NCCCCCC(=O)O [ACEXAMIC ACID] | > 30 |  |  |
| CC(=O)NO [ACETOHYDROXAMIC ACID] | > 30 | > 30 |  |
| CN[C@@H]1[C@H](O[C@H]2[C@H](O[C@H]3[C@H](O)[C@@H](O)[C@H](NC(=N)N)[C@@H](O)[C@@H]3NC(=N)N)O[C@@H](C)[C@]2(O)CO)O[C@@H](CO)[C@H](O)[C@H]1O [DIHYDROSTREPTOMYCIN] | > 30 | > 30 |  |
| CC(C)[C@@H]1CC[C@@H](C)C[C@H]1O [LEVOMENTHOL] | > 30 | > 30 |  |
| C[C@H]1O[C@@H](O[C@H]2CC[C@@]3(C)[C@H](CC[C@@H]4[C@@H]3C[C@@H](O)[C@]3(C)[C@@H](C5=CC(=O)OC5)CC[C@]43O)C2)C[C@H](O)[C@@H]1O[C@H]1C[C@H](O)[C@H](O[C@H]2C[C@H](O)[C@H](O[C@@H]3O[C@H](CO)[C@@H](O)[C@H](O)[C@H]3O)[C@@H](C)O2)[C@@H](C)O1 [DESLANOSIDE] | > 30 | > 30 |  |
| Cc1ccsc1C(=CCCN1CCC[C@@H](C(=O)O)C1)c1sccc1C [TIAGABINE] | > 30 | > 30 |  |
| O=C(O)Cc1ccccc1Nc1c(Cl)cccc1Cl [DICLOFENAC] |  | > 3 | AC50 (Vasopressin V1a receptor): > 30 µM; AC50 (Vasopressin V2 receptor): > 30 µM; AC50 [2]: > 10 µM; AC50 (Histamine H2 receptor): > 10 µM; AC50 [3]: > 10 µM; AC50 [4]: > 10 µM |
| O=C(NNCS(=O)(=O)O)c1ccncc1 [METHANIAZIDE] | > 30 |  |  |
| C=N[C@@H](C(=O)N[C@@H]1C(=O)N2[C@@H]1SC(C)(C)[C@@H]2C(=O)O)c1ccccc1 [METAMPICILLIN] | > 30 |  |  |
| Cc1cc(=O)[nH]c(=S)[nH]1 [METHYLTHIOURACIL] | > 30 |  |  |
| CC[C@]12CCCN3CCc4c(n(c5ccccc45)[C@@](O)(C(=O)OC)C1)[C@@H]32 [VINCAMINE] | > 30 | > 30 |  |
| C[N+]1(C)CCCC(OC(=O)C(O)(c2ccccc2)c2ccccc2)C1 (configuration not stated) [MEPENZOLATE] | 20.4 |  |  |
| CCCCC(CC)CN1CN(CC(CC)CCCC)CC(C)(N)C1 (configuration not stated) [HEXETIDINE] | 6.51 | > 30 |  |
| C=CC(=O)Nc1cccc(Oc2nc(Nc3ccc(N4CCN(C)CC4)cc3)nc3ccsc23)c1 [OLMUTINIB] | > 30 | > 30 |  |
| COc1c2occc2c(OC)c2c(=O)cc(C)oc12 [KHELLIN] | > 30 |  |  |
| C=C(C)CNc1ccc(C(C)C(=O)O)cc1 (configuration not stated) [ALMINOPROFEN] | > 30 | > 30 |  |
| COc1ccccc1OC1(C)OC(=O)c2ccccc2O1 (configuration not stated) [GUAIMESAL] |  | > 30 | AC50 (Vasopressin V1a receptor): > 30 µM; AC50 (Vasopressin V2 receptor): > 30 µM; AC50 (Progesterone receptor): > 30 µM |
| C[N+](C)(CCCCCC[N+](C)(C)C1c2ccccc2-c2ccccc21)C1c2ccccc2-c2ccccc21 [HEXAFLUORENIUM] | 3.02 |  |  |

| SMILES | AC50 [1] [µM] | AC50 (Androgen receptor) [µM] | also measured |
| --- | --- | --- | --- |
| CCCCc1oc2ccc(NS(C)(=O)=O)cc2c1C(=O)c1ccc(OCCCN(CCCC)CCCC)cc1 [DRONEDARONE] | 3.31 |  |  |
| CC(C)C(=O)Oc1ccc(CO)cc1[C@H](CCN(C(C)C)C(C)C)c1ccccc1 [FESOTERODINE] | > 30 | > 30 |  |
| CC[C@H]1OC(=O)[C@H](C)[C@@H](O[C@H]2C[C@@](C)(OC)[C@@H](O)[C@H](C)O2)[C@H](C)[C@@H](O[C@@H]2O[C@H](C)C[C@H](N(C)C)[C@H]2O)[C@](C)(O)C[C@@H](C)[C@@H]2N[C@@H](COCCOC)O[C@H]([C@H]2C)[C@]1(C)O [DIRITHROMYCIN] | > 30 |  |  |
| C[C@H]1CN(C[C@H](Cc2ccccc2)C(=O)NCC(=O)O)CC[C@@]1(C)c1cccc(O)c1 [ALVIMOPAN] | > 30 | > 30 |  |
| CCNC(=O)/C=C(C)/C=C/C=C(C)/C=C/c1c(C)cc(OC)c(C)c1C [MOTRETINIDE] | 28.3 | > 30 |  |
| Cc1ccccc1C(=O)Nc1ccc(C(=O)N2CCCC(O)c3cc(Cl)ccc32)c(C)c1 (configuration not stated) [TOLVAPTAN] | > 30 |  |  |
| CCCCC1C(=O)N(c2ccccc2)N(c2ccc(O)cc2)C1=O (configuration not stated) [OXYPHENBUTAZONE ANHYDROUS] | > 30 | > 30 |  |
| COC(=O)[C@@H](N)Cc1ccc(O)c(O)c1 [MELEVODOPA] | > 30 | > 30 |  |
| Cc1ccc(C(=O)c2ccc(CC(=O)O)n2C)cc1 [TOLMETIN] |  | > 30 |  |
| Cc1ccc(C)c(OCCCC(C)(C)C(=O)O)c1 [GEMFIBROZIL] |  | > 30 | AC50 (Vasopressin V1a receptor): > 10 µM; AC50 (Vasopressin V2 receptor): > 30 µM; AC50 [2]: > 10 µM; AC50 (Histamine H2 receptor): > 10 µM; AC50 [3]: > 10 µM; AC50 [4]: > 10 µM |
| Cc1cc(=O)oc2cc(O)ccc12 [HYMECROMONE] | > 30 |  |  |
| C[Se]CC[C@H](N)C(=O)O [SELENOMETHIONINE] | > 30 |  |  |
| N=C(N)N/N=C/c1c(Cl)cccc1Cl [GUANABENZ] |  | > 30 |  |
| CN1Cc2c(N)cccc2C(c2ccccc2)C1 (configuration not stated) [NOMIFENSINE] |  |  | AC50 (Vasopressin V1a receptor): > 30 µM; AC50 (Vasopressin V2 receptor): > 30 µM; AC50 [2]: > 30 µM; AC50 (Histamine H2 receptor): > 30 µM; AC50 [3]: > 30 µM; AC50 [4]: > 30 µM; AC50 (Progesterone receptor): > 30 µM |
| CC=CC1=C(C(=O)O)N2C(=O)[C@@H](NC(=O)[C@H](N)c3ccc(O)cc3)[C@H]2SC1 [CEFPROZIL] |  |  | AC50 (Vasopressin V1a receptor): > 30 µM; AC50 (Vasopressin V2 receptor): > 30 µM; AC50 [2]: > 30 µM; AC50 (Histamine H2 receptor): > 30 µM; AC50 [3]: > 30 µM; AC50 [4]: > 30 µM; AC50 (Progesterone receptor): > 30 µM |
| O=C(O)CN(CCN(CC(=O)O)CC(=O)O)CCN(CC(=O)O)CC(=O)O [PENTETIC ACID] | 0.0429 |  |  |
| CC(=O)Nc1ccc(CC(=O)O)cc1 [ACTARIT] |  |  | AC50 (Vasopressin V1a receptor): > 30 µM; AC50 (Vasopressin V2 receptor): > 30 µM; AC50 [2]: > 30 µM; AC50 (Histamine H2 receptor): > 30 µM; AC50 [3]: > 30 µM; AC50 [4]: > 30 µM; AC50 (Progesterone receptor): > 30 µM |
